This note sets out measurements from patent US6211215A, “Heterocyclic compounds, their production and use” (Takeda Chemical Industries, Ltd., priority 1996, dated 2001).

Molecules are shown by their SMILES.

One data set deals with HER2 (Homo sapiens, UniProt P04626). Nature of the data set: Inhibition of phosphorylation of receptor tyrosine in human breast cancer cells (1), T-47D, heregulin-stimulated. Format: cell-based. As to the method:
Human breast cancer cell line T-47D was cultured for 7 days in the medium containing 0.1% bovine fetus albumin instead of serum to deprive the medium of estrogen. On the 7th day, 1,000 μl of the cell suspension (250,000 cells) was seeded in each well of the 24-well plates. The culture were incubated at 37° C. in a 5% carbon dioxide gas incubator. On the next day, 100 μl of the 10-fold serial dilution of each compound solution was added to each well and, 2 hours later, 0.5 μg/ml of heregulin was added to it. After 5 minutes the extract solution was added to it to terminate the reaction, and the protein fraction was extracted. To the extract was added an antibody against the human receptor type oncogene HER2 to precipitate the human receptor type oncogene HER2 protein by the reaction of immunoprecipitation. The precipitate was fractionated by the protein electrophoresis. The protein in the electrophoretic gel was transferred to a nylon filter. The filter was allowed to react with the phosphorylated tyrosine-specific antibody. The reaction product was fluorescence-labeled to expose a photofilm. The intensity of the exposure on the photofilm was quantitated by an image-analyzing apparatus. The proportion of the phosphorylation of HER2 tyrosine in the cells added with a compound solution of each concentration was calculated designating the phosphorylation of HER2 tyrosine in the heregulin-added cells as 100%.

The next data set deals with MDA-MB-453. The data set is described as follows: In vitro inhibition of cell proliferation (1). It counts as cell-based. The note with it: Homo sapiens, 72 h; Breast cancer MDA-MB-453; 3 days; SRB. As to the method:
100 μl (containing 2,000 cells) of a cell suspension of human breast cancer cell line MDA-MB-453 was seeded in each well of the 96-well microtiter plates. The cultures were incubated at 37° C. in a 5% carbon dioxide gas incubator. On the next day, 100 μl of the 2-fold serial dilution of each compound solution was added to each well and the mixtures were cultured for 3 days. The solution containing the compound was removed and the cells were washed with water. To the cells was added a 0.4% (W/V) dye SRB (dissolved in 1% acetic acid) solution to fix and stain the cell protein (Skehan P. et al., Journal of the National Cancer Institute Vol.82, pp.1107-1112, 1990). The dye solution was removed and the fixed and stained cell protein was washed. The protein-bound dye was extracted with 200 μl of 10 mM Tris buffer. The optical density of the extracted dye was determined at the wavelength of 540 nm to estimate the quantity of the cells in terms of the protein quantity. Designating the protein quantity in the control to which no compound solution was added as 100%, the proportion of the residual protein quantity in each treated group was calculated, and IC50, which was concentration of the compound required to inhibit the residual protein quantity to 50% the quantity of the control, was calculated.

Data set [1] can be described thus: Body weights of mice during the in vivo tumor experiments. On the set-up: species or system Balb/C strain athymic nude mice. As to the method:
5,000,000 cells of human breast cancer cell line, MDA-MB-453, were suspended in a gelmatrix solution. The suspension was subcutaneously implanted at the breast in 7-week-old female Balb/C strain athymic nude mice (Friedman R. et al., Proceedings of the National Academy of Sciences of the U.S.A. Vol. 87, pp.6698-6702, 1990). Twelve days after the implantation, the diameters of tumors were determined. For the experiment were used 5 mice per group with similar tumor size. […] On the day when the dosing was ended, the diameters of tumors were measured. Tumor volume was calculated by the following formula: volume of tumor=longest diameter×shortest diameter×shortest diameter×1/2. […] The body weights of mice administered with Compound 8 of the present invention were measured during the experiment to observe no decrease.
5,000,000 cells of human breast cancer cell line, MDA-MB-453, were suspended in a gelmatrix solution. […] Twelve days after the implantation, the diameters of tumors were determined. […] On the day when the dosing was ended, the diameters of tumors were measured. Tumor volume was calculated by the following formula: volume of tumor=longest diameter×shortest diameter×shortest diameter×1/2. […] The body weights of mice administered with compounds of the present invention were measured during the experiment to observe no decrease. […]

Sequence of HER2 (P04626 23-1255): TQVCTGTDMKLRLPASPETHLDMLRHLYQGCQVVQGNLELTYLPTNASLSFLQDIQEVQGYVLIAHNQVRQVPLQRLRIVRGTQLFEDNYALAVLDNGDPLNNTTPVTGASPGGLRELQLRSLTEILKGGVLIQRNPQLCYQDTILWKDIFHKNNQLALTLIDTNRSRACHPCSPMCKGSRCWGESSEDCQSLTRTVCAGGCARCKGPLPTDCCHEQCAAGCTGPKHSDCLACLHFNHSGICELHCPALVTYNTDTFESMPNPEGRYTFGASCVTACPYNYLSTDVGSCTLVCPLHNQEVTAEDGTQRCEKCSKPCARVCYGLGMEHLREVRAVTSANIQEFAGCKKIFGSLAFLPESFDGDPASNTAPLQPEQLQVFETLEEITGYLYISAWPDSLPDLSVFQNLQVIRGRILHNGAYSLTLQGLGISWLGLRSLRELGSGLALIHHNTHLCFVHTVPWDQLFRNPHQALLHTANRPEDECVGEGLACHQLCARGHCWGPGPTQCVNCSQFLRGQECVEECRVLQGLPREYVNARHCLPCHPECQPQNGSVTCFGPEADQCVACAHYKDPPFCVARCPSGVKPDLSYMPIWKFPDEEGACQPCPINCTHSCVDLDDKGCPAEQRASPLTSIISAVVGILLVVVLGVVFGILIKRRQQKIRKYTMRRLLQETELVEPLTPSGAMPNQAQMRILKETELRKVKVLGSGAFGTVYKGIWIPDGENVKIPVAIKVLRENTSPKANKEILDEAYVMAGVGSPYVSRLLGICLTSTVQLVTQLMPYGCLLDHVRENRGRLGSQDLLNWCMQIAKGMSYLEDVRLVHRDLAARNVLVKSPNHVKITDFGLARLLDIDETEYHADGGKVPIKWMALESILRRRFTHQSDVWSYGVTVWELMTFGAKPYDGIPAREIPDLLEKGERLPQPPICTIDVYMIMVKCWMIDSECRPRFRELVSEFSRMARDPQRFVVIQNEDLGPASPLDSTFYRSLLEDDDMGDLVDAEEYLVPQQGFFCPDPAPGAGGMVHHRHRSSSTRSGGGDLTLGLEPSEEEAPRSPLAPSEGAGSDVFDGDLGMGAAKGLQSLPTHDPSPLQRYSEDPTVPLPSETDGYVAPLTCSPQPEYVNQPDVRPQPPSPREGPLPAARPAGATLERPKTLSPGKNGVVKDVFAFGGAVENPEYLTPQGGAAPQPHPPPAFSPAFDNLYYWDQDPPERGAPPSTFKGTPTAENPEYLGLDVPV

For `C(=C\c1nc(COc2ccc(CCCn3ccnc3)cc2)co1)/c1ccccc1` [Compound 8, 4-[4-[3-(1-imidazolyl)propyl]phenoxymethyl]-2-[(E)-2-phenylethenyl]oxazole], at HER2 (T47D, 0.4 μM, heregulin control = 100%, read-out: Phosphorylation of the tyrosine residue (%)), the activity at 0.4 µM worked out at 62%. Besides, at HER2 (T47D, 1.6 μM, heregulin control = 100%, read-out: Phosphorylation of the tyrosine residue (%)), the activity at 1.6 µM is 52%. For the same compound, the activity at 6.3 µM at HER2 (T47D, 6.3 μM, heregulin control = 100%, read-out: Phosphorylation of the tyrosine residue (%)) is 33%. In addition, the activity at 25 µM at HER2 (T47D, 25 μM, heregulin control = 100%, read-out: Phosphorylation of the tyrosine residue (%)) amounted to 20%. The “Inhibition of receptor tyrosine phosphorylation” value on HER2 (heregulin) is listed as “inhibit dose-dependently the phosphorylation reaction of the tyrosine residue in the receptor protein”. Moreover, in the data set on MDA-MB-453, half-maximal inhibition (IC50) required 250 nM. In addition, the “Body weight change” value in data set [1] (Test Example 8, MDA-MB-453-bearing mice) was “no decrease”; in data set [1] (Test Example 11, LNCaP-bearing mice, oral 30 mg/kg twice daily 21 days), “no decrease”.
